From US5747661A, “Retinoid-inducible response elements” (Howard Hughes Medical Institute)
“Also recorded” adds a separate entry of the source.

T1: GAL4-RAR (Homo sapiens, UniProt P10276)
T1 construct: hRARα 185-462; expressed in transfected cells; host or cells: CV-1
T1 sequence (P10276 185-462): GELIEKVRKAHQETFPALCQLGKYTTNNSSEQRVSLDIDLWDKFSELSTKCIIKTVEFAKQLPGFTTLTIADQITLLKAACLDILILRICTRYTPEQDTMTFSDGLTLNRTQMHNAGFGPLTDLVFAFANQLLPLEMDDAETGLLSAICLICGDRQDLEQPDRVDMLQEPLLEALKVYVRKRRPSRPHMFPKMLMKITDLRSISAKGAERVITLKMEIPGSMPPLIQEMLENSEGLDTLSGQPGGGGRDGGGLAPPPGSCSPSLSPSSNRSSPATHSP

T2: GAL4-LXR (Homo sapiens, UniProt Q13133)
T2 construct: hLXRα 166-447; expressed in transfected cells; host or cells: CV-1
T2 sequence (Q13133 166-447): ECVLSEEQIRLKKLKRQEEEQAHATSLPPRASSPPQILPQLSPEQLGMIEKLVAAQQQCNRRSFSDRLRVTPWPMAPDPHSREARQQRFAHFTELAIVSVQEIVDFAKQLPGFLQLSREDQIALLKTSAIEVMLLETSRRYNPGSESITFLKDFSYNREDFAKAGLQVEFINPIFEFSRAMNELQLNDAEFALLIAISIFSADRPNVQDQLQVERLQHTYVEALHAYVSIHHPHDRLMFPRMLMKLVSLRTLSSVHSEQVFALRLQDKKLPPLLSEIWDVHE

B1: LXRE (ΔMTV) (dsDNA)
DNA 1: CTTGCGGTTCCCAGGGTTTAAATAAGTTCA
DNA 2: TGAACTTATTTAAACCCTGGGAACCGCAAG

Columns and labels:
[1] = test system: hLXRα; assay: CV-1 cotransfection assay, hLXRα expression plasmid with LXRE luciferase reporter (TK-LXRE3-LUC / TK-LXRE2-LUC); assay type: cell-based, human; conditions: for LXRα activation of LXRE-containing luciferase reporter (TK-LXRE3-LUC): CV-1 cells, hLXRα transfected alone, 10^-5 M 9cRA, 10^-5 M TTNPB, 10^-4 M methoprene acid, harvested 36 hours after ligand
Description: (§1) CV-1 cells were maintained at 37° C., 5% CO2 in DMEM containing 5% calf bovine serum (CBS). Transfections were performed in 8-well plates in media containing 5% dextran-charcoal stripped CBS by the calcium phosphate coprecipitation technique as described previously (Mangelsdorf et al., (1990) supra). Eight hours after transfections ligands were delivered to cells at 10^3 -fold dilutions (0.1% vol/vol of solvent in media). Retinoids (gifts from Marcus Boehm at Ligand Pharmaceuticals, Inc.) were manipulated under gold light and stored dark in ethanol or methanol under nitrogen gas at -80° C. Cells were harvested 36 hours after addition of ligand and analyzed for luciferase and β-galactosidase activity using a Dynatech microtiter plate Model ML3000 luminometer and a Model MR5000 spectrophotometer, respectively.
(§2) For most experiments, cotransfection of DNA into mammalian cells was accomplished with 50 ng reporter plasmid, 50 ng RSV- or CMX-βgal, 25 ng of each receptor expression plasmid and pGEM carrier to give 375 ng DNA/well. For controls, the empty CMX vector was used in place of the receptor cDNA. For the GAL4-receptor chimera experiments, 30 ng receptor and 80 ng of reporter plasmid were used. For GAL4 and VP16 chimera interaction assays, 30 ng of GAL4-LXRα and 15 ng of the VP16-RAR or -RXR were used along with 80 ng of the reporter plasmid. All transfection data points were normalized using an internal β-galactosidase marker (Mangelsdorf et al., (1990) supra) and represent the mean of duplicate or triplicate assays.
To identify a potential ligand for the orphan receptor LXRα, a cell-based cotransfection screening assay similar to that used to successfully identify the RXR ligand (see Mangelsdorf et al., (1990) supra; Heyman et al., in Cell68:397-406 (1992)) was employed. Initially an LXR responsive gene was unknown, therefore the preliminary experiments were designed to first identify an LXR-specific DNA binding sequence that could serve as an LXR responsive element (referred to as an LXRE). […] Thus, an assay system was established by transfecting CV-1 cells with an expression plasmid harboring the cDNA for LXRα and the luciferase reporter plasmid TK-LXRE3-LUC (see FIG. 2a). TK-LXRE3-LUC contains three copies of the LXRE defined herein; TK-CRBPII-LUC contains the RXRE from the rat CRBPII promoter (Mangelsdorf et al., (1991) supra)); TK-βRE-LUC contains the RAR response element from the mouse RARβ2 promoter (Sucov et al., (1990) supra). Luciferase activity is expressed in relative light units (RLU) and represents the mean of triplicate assays (±SEM) normalized to βgal as an internal standard.
Thus, expression plasmids for hLXRα, hRXRα, or no receptor (-) were cotransfected into CV1 cells in combination with the reporter plasmids TK-LUC or TK-LXRE2-LUC as indicated. […]

[2] = molecular target: T3, hRXRα (Homo sapiens, UniProt P19793); assay: CV-1 cotransfection assay, hRXRα expression plasmid with RXRE luciferase reporter TK-CRBPII-LUC; assay type: cell-based; conditions: CV1 cells, 10^-4 M methoprene acid, FIG. 2d
T3 construct: Construction of wild-type receptor inserted into the expression vectors RSV and CMX; expressed in transfected cells; host or cells: CV-1
T3 sequence (P19793 whole entry): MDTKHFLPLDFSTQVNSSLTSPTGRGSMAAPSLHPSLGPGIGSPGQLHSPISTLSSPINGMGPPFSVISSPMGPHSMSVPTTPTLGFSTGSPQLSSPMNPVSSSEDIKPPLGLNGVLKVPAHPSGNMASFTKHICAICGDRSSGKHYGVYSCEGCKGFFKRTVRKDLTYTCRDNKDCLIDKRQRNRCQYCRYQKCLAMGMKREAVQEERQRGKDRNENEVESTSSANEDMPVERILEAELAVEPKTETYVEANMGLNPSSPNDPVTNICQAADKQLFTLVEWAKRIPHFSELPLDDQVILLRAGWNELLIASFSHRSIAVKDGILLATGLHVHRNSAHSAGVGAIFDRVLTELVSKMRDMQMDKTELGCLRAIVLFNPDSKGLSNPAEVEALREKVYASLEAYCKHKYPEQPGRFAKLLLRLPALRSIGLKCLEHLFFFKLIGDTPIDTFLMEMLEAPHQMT
Description: as §1
as §2, with “All transfection data points were normalized using an internal β-galactosidase marker (Mangelsdorf et al., (1990) supra) and represent the mean of duplicate or triplicate assays.” left out

[3] = molecular target: T4, hRARα (Homo sapiens, UniProt P10276); assay: CV-1 cotransfection assay with RAR response element luciferase reporter (TK-βRE-LUC); assay type: cell-based; conditions: CV1 cells; 10^-5 M TTNPB, 10^-4 M methoprene acid; occurs also without transfected RAR or RXR
T4 construct: Construction of wild-type receptor inserted into the expression vectors RSV and CMX; expressed in transfected cells; host or cells: CV-1
T4 sequence (P10276 whole entry): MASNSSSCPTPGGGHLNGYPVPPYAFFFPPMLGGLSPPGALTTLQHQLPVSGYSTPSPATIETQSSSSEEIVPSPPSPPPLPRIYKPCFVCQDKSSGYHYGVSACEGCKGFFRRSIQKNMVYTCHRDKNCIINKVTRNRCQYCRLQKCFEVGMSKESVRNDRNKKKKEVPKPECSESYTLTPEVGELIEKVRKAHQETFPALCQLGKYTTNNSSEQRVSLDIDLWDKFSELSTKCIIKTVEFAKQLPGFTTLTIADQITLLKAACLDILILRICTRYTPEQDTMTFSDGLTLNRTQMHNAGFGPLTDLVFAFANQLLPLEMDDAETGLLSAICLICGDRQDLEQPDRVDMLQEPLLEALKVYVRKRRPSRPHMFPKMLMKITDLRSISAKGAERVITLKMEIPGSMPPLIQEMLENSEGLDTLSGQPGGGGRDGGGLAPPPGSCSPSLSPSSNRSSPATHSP
T4 sequence (P19793 whole entry, further chain): as the sequence (P19793 whole entry) above
Description: as §1
as §2, with “All transfection data points were normalized using an internal β-galactosidase marker (Mangelsdorf et al., (1990) supra) and represent the mean of duplicate or triplicate assays.” left out

[4] = molecular target: T5, GAL4-RXR (Homo sapiens, UniProt P19793); assay: GAL4-receptor chimera ligand activation, GAL4-RXR with TK-MH100x4-LUC in CV1 cells; assay type: cell-based; conditions: 10^-5 M 9cRA, 10^-5 M TTNPB, 10^-4 M methoprene acid, FIG. 3c
T5 construct: hRXRα 203-462; expressed in transfected cells; host or cells: CV-1
T5 sequence (P19793 203-462): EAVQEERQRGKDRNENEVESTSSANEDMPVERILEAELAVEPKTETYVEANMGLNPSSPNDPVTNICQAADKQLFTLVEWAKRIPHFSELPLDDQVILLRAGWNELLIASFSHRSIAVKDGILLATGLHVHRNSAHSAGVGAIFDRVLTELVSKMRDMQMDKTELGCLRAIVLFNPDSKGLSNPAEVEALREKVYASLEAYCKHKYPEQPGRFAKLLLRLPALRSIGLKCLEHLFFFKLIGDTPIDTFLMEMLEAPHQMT
Description: (§3) FIG. 3C illustrates the ligand specificity of the GAL4-receptor chimeras. […] In both 3B and 3C, CV1 cells were cotransfected as described previously with CMX vectors driving expression of the indicated hybrid proteins and the reporter plasmid TK-MH100x4-LUC, which contains four copies of the GAL4 DNA upstream activation sequence. In FIG. 3C, ligands were added as described with reference to FIG. 2. Luciferase activity is expressed as RLUs (relative light units) corrected for transfection efficiency using an internal […] standard and represents the mean of triplicate assays (±SEM).
(§4) The hLXRα cDNA insert was excised from the plasmid pXR2ΔRV with Kpn1 and BamHI and ligated into the expression vectors RSV and CMX. […] The cDNAs encoding the ligand-binding domain (LBD) of each of the receptors were then ligated into the polylinker to create GAL4-LBD fusions.
(§5) Such heterologous system provides an effective means for directly assaying receptor/ligand interactions, even in the presence of endogenous wild-type receptors.

[5] = molecular target: T1, GAL4-RAR; assay: GAL4-receptor chimera ligand activation, GAL4-RAR with TK-MH100x4-LUC in CV1 cells; assay type: cell-based; conditions: 10^-5 M 9cRA, 10^-5 M TTNPB, 10^-4 M methoprene acid, FIG. 3c
Description: as §3, §4, §5

[6] = molecular target: T2, GAL4-LXR; assay: GAL4-receptor chimera ligand activation, GAL4-LXR with TK-MH100x4-LUC in CV1 cells; assay type: cell-based; conditions: 10^-5 M 9cRA, 10^-5 M TTNPB, 10^-4 M methoprene acid, FIG. 3c
Description: as §3
Construction of wild-type receptor inserted into the expression vectors RSV and CMX, have been detailed elsewhere (Gigueere et al., in Cell46:645-652 (1986); Umesono et al., in Cell65:1255-1266 (1991); Mangelsdorf et al., (1990) supra). The hLXRα cDNA insert was excised from the plasmid pXR2ΔRV with Kpn1 and BamHI and ligated into the expression vectors RSV and CMX. Chimeric Gal4-receptor expression plasmids (e.g. CMX-GAL4-LXRα) were constructed by first ligating the GAL4 portion of pSG424 (Sadowski and Ptashne, in Nucleic Acids Res. 17:[…] (1989)) into the HindIII/SacI sites of pCMX (Umesono et al., in Cell 65:1255-1266 (1991)) to create pCMX-GAL4. This vector contains the CMV promoter fused to the coding sequence for GAL4 (1-147), followed by inframe polylinker cloning sites and translational stop codons. The cDNAs encoding the ligand-binding domain (LBD) of each of the receptors were then ligated into the polylinker to create GAL4-LBD fusions.
The following receptor amino acid sequences were used for these constructions and their corresponding DNA sequences ligated into pCMX-GAL4:hLXRα 166-447, hRXRα 203-462 and hRARα 185-462.
To address the possibility that the retinoid response elicited by LXRα was through the direct interaction of ligand with the putative ligand binding domain of LXRα, ligand activation experiments were performed with the GAL4-receptor hybrids. […]

[7] = molecular target: T6, LXR/RXR heterodimer (Homo sapiens, UniProt P19793); assay: CV1 cotransfection of both hLXRα and hRXRα with LXRE reporter TK-LXRE2-LUC; assay type: cell-based; conditions: CV1 cells, 25 ng hLXRα:2.5 ng hRXRα; 10^-4 M methoprene acid; FIG. 4
T6 construct: Construction of wild-type receptor inserted into the expression vectors RSV and CMX; expressed in transfected cells; host or cells: CV-1
T6 sequence (Q13133 whole entry A196R): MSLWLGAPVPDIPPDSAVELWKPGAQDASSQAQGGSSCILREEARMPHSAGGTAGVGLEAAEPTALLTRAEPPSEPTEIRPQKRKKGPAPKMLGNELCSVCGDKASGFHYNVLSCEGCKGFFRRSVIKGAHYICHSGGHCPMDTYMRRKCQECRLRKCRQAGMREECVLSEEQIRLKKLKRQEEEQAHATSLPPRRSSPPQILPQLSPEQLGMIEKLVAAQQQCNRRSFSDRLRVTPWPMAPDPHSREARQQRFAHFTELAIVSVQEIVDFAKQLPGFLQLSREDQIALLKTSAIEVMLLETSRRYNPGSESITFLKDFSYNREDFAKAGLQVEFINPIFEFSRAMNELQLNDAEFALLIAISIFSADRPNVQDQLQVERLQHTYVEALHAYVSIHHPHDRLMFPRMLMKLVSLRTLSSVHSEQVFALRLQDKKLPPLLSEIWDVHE
T6 sequence (P19793 whole entry): as the sequence (P19793 whole entry) above
Description: Thus, expression plasmids for hLXRα, hRXRα, or no receptor (-) were cotransfected into CV1 cells in combination with the reporter plasmids TK-LUC or TK-LXRE2-LUC as indicated. Cells were then incubated with ethanol control (-) or […] methoprene acid (+) and assayed for luciferase activity as described above. TK-LXRE2-LUC contains two copies of the LXRE. In experiments in which LXR and RXR plasmids were cotransfected together the ratio of the two expression plasmids was 1:0.1 (25 ng hLXRα:2.5 ng hRXRα). In all other experiments were LXR and RXR were added alone, the amount of each receptor expression plasmid was 25 ng.

[8] = molecular target: T3, hRXRα; assay: CV1 cotransfection of hRXRα alone with LXRE luciferase reporter; assay type: cell-based; conditions: CV1 cells, 25 ng hRXRα; 10^-4 M methoprene acid; FIG. 4
Description: as §1
as §2, with “All transfection data points were normalized using an internal β-galactosidase marker (Mangelsdorf et al., (1990) supra) and represent the mean of duplicate or triplicate assays.” left out

[9] = test system: RXRs; conditions: from the literature; cited from earlier work
[10] = test system: RARs; conditions: from the literature; cited from earlier work
[11] = molecular target: LXRα/RXRα heterodimer (Homo sapiens, UniProt Q13133;P19793 Q13133:1-447,P19793:1-462); assay: EMSA; strong complex; supershifted by anti-RXRα; 75 mM KCl, 20 mM Hepes pH 7.4; conditions: tags: none; coupled in vitro transcription/translation (Promega); label: 32P; HindIII overhangs
Chain of LXRα/RXRα heterodimer (P19793 whole entry, one chain of several): as the sequence (P19793 whole entry) above
Description: (§6) For EMSA experiments, receptor proteins were generated using a coupled in vitro transcription/translation system according to the manufacturer's instructions (Promega). Sequences of double-stranded oligonucleotides were as shown in the figures and text and were synthesized with HindIII overhangs. Binding reactions were performed in a total volume of 20 μl consisting of 75 mM KCl, 20 mM Hepes, pH 7.4, 2 mM DTT, 7.5% glycerol, 0.1% NP-40, 2
(§7) MG poly (dI-dC) (Pharmacia), 40 pmol of a non-specific single-stranded oligonucleotide (for removal of non-specific binding in the lysates), and 2 μl of receptor lysates or unprogrammed (control) lysates. Reactions containing lysates and competing oligonucleotides were incubated for 30 minutes on ice followed by the addition of 40 fmol of ^32P-labeled oligonucleotide probe (labeled by end-filling) and further incubated for 20 minutes at room temperature. Samples were then analyzed on 5% polyacrylamide gels run in 0.5X TBE buffer. For antibody supershifting experiments, 1 μl of anti-hRXRα antiserum (a gift from Jacki Dyck), or non-specific antiserum was added to the reactions after addition of the radiolabeled probe and incubated at room temperature for 10 minutes, followed by gel electrophoresis.

[12] = molecular target: RXRα (Homo sapiens, UniProt P19793 P19793:1-462); assay: EMSA; RXRα alone; conditions: label: 32P; HindIII overhangs
Chain of RXRα (P19793 whole entry, one chain of several): as the sequence (P19793 whole entry) above
Description: as §6, §7

| Molecule | LXRα activation of LXRE-containing luciferase reporter (TK-LXRE3-LUC) [1] | Ligand inducible transactivation by GAL4-RAR chimera [5] | Ligand inducible transactivation by GAL4-LXR chimera [6] | Ligand binding / specificity for RXR [9] | Ligand binding / specificity for RAR [10] | also measured |
| --- | --- | --- | --- | --- | --- | --- |
| COC(C)(C)CCCC(C)C/C=C/C(C)=C/C(=O)O (centres unmarked) [methoprene acid] | strongly activated; also recorded: strongly activates transcription | only activates RXR | no activation | RXR-specific |  | Ligand response of TK-LXRE2-LUC with LXRα alone ([1]; CV1 cells, 25 ng hLXRα, methoprene acid, FIG. 4): marked ligand response; Response of RXRE reporter TK-CRBPII-LUC in the presence of RXRα ([2]; hRXRα transfected): marked response; Response of RXRE reporter TK-CRBPII-LUC with RARα or LXRα transfected instead of RXRα [2]: not RARα or LXRα; Retinoid response of RAR response element reporter [3]: occurs through an RXR homodimer; Ligand inducible transactivation by GAL4-RXR chimera [4]: only activates RXR; Retinoid responsive activity of TK-LXRE2-LUC with LXRα and RXRα together [7]: dramatic synergistic increase; Ligand response of TK-LXRE2-LUC with RXRα alone [8]: no response |
| CC1=C(/C=C/C(C)=C/C=C/C(C)=C/C(=O)O)C(C)(C)CCC1 [atRA, All-trans retinoic acid] |  |  |  | ligand for only RARs | ligand for only RARs |  |
| CC1=C(/C=C/C(C)=C\C=C\C(C)=C\C(=O)O)C(C)(C)CCC1 [9cRA, 9-cis retinoic acid] | strongly activated | activates both RXR and RAR | no activation | high affinity ligand for both RARs and RXRs; also recorded: binds to both RXR and RAR | high affinity ligand for both RARs and RXRs; also recorded: binds to both RXR and RAR |  |
| C/C(=C\c1ccc(C(=O)O)cc1)c1ccc2c(c1)C(C)(C)CCC2(C)C [TTNPB, (E)-4-[2-(5,6,7,8-tetrahydro-5,5,8,8-tetramethyl-2-napthalenyl) -1-propenyl]benzoic acid] | no effect |  | no activation |  | RAR-specific |  |
| B1 |  |  |  |  |  | binding result [11]: binds; binding result [12]: no binding |
